# Molecular target: human P2X7 receptor (Homo sapiens, UniProt Q99572, R270H/Y155H)
# Assay: Evaluation of human P2X7 receptor inhibitory activity (Yo-Pro uptake, BzATP stimulation, FLIPR TETRA)
# Type: cell-based
# Settings: 1321N1 cells stably expressing human P2X7 receptor; BzATP stimulation, Yo-Pro uptake; read-out: IC50 (antagonistic activity for the human P2X7 receptor)
# Method in brief: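 Yo-Pro dye uptake triggered by BzATP was monitored by FLIPR in human P2X7-transfected 1321N1 cells (SNP variant) in HEPES-buffered HBSS, pH 7.4-7.5. Compound was dispensed 8 min post-stimulation, then signal read for 20 min; IC50 derived logistically from inhibition of the fluorescence range.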
row,SMILES,IC50
1,Cc1c(Nc2nc(=O)cnn2Cc2cc(F)c(F)c(F)c2)ccc2[nH]ccc12 [Compound I-1263],3 nM
2,COc1cn(Cc2cc(F)c(F)c(F)c2)c(Nc2cc3scnc3cc2C)nc1=O [Compound I-0935],6 nM
3,COc1cn(Cc2cc(F)cc(F)c2)c(Nc2c(C)ccc(C)c2F)nc1=O [Compound I-0928],10 nM
4,COc1cn(Cc2cc(F)c(F)c(F)c2)c(Nc2cccc3sccc23)nc1=O [Compound I-0626],4 nM
5,COc1cn(Cc2ccccc2)c(Nc2cccc3sccc23)nc1=O [Compound I-0104],41 nM
6,COc1cn(Cc2ccc(F)c(Cl)c2)c(Nc2cc3cc[nH]c3cc2C)nc1=O [Compound I-0941],12 nM

# Same assay, conditions: 1321N1 cells stably expressing human P2X7 receptor; BzATP stimulation, Yo-Pro uptake; read-out: IC50 (antagonistic activity for the human P2X7 receptor), class symbol
row,SMILES,IC50
1,CCc1ccccc1Nc1nc(=O)c(OC)cn1Cc1cccc(Cl)c1 [Compound I-0322],10 to 100 nM
2,COc1cn(Cc2cccc(Cl)c2)c(Nc2cccc(Cl)c2C)nc1=O [Compound I-0126],10 to 100 nM
3,COc1cn(Cc2ccc(Cl)cc2)c(Nc2cc(C)c(Cl)cc2C)nc1=O [Compound I-0171],10 to 100 nM
4,COc1c(C)ccc(Nc2nc(=O)c(OC)cn2Cc2ccc(F)c(F)c2)c1C [Compound I-0517],< 10 nM
5,COc1cn(Cc2cc(F)cc(F)c2)c(Nc2cc(Cl)c(Cl)cc2C)nc1=O [Compound I-0541],10 to 100 nM
6,Cc1c(Cl)cccc1Nc1nc(=O)c(CC(=O)N2CCOCC2)cn1Cc1ccccc1 [Compound I-0339],100 to 500 nM
7,CCc1cc(OC)ccc1Nc1nc(=O)c(OC)cn1Cc1cccc(F)c1 [Compound I-0261],< 10 nM
8,COc1cn(Cc2ccc(F)c(Cl)c2)c(Nc2cccc(Cl)c2C)nc1=O [Compound I-0166],< 10 nM
9,Cc1c(Cl)cccc1Nc1nc(=O)c(Cl)cn1Cc1ccccc1 [Compound I-0011],10 to 100 nM
10,COc1cn(Cc2cccc(Cl)c2)c(Nc2ccc(C)cc2C)nc1=O [Compound I-0374],10 to 100 nM
11,CCc1cc(Cl)ccc1Nc1nc(=O)c(OC)cn1Cc1cc(F)cc(F)c1 [Compound I-0542],10 to 100 nM
12,COc1cn(Cc2ccc(F)cc2F)c(Nc2cccc(Cl)c2C)nc1=O [Compound I-0329],10 to 100 nM
13,CCOc1cc(C)c(Nc2nc(=O)c(OC)cn2Cc2ccc(F)cc2)cc1C [Compound I-0258],< 10 nM
14,COc1cn(Cc2ccccc2)c(Nc2cc(N3CCN(C(=O)OC(C)(C)C)CC3)ccc2C)nc1=O [Compound I-0411],100 to 500 nM
15,COc1cn(Cc2ccc(F)c(Cl)c2)c(Nc2cc(CN3CCCC3)ccc2C)nc1=O [Compound I-0524],100 to 500 nM
16,COc1cn(Cc2ccccc2Cl)c(Nc2cccc(Cl)c2C)nc1=O [Compound I-0125],10 to 100 nM
17,Cc1c(Cl)cccc1NC(=O)Cc1cn(Cc2ccccc2)c(Nc2cccc(Cl)c2C)nc1=O [Compound I-0238],100 to 500 nM
18,Cc1c(Cl)cccc1Nc1nc(=O)c(CC(N)=O)cn1Cc1ccccc1 [Compound I-0026],10 to 100 nM
19,COc1cc(C)cc(Nc2nc(=O)c(OC)cn2Cc2cc(F)cc(Cl)c2)c1C [Compound I-0395],< 10 nM
20,COc1ccc(Nc2nc(=O)c(OC)cn2Cc2ccc(F)c(Cl)c2)c(C)c1C [Compound I-0394],< 10 nM
21,CCc1ccccc1CNc1nc(=O)c(OC)cn1Cc1ccccc1 [Compound I-0114],100 to 500 nM
22,COc1cn(Cc2ccc(F)c(Cl)c2)c(Nc2cc(F)c(F)cc2C)nc1=O [Compound I-0360],10 to 100 nM
23,CCc1cc(OC)c(OC)cc1Nc1nc(=O)c(F)cn1Cc1ccc(F)cc1 [Compound I-0267],< 10 nM
24,Cc1c(Cl)cccc1Nc1nc(=O)c(F)cn1Cc1ccc(F)cc1 [Compound I-0041],< 10 nM
25,COc1cn(Cc2cc(C)cc(C)c2)c(Nc2cccc(Cl)c2C)nc1=O [Compound I-0521],500 to 1000 nM
26,COc1cn(Cc2cccc(OC(F)(F)F)c2)c(Nc2cccc(Cl)c2C)nc1=O [Compound I-0304],500 to 1000 nM

# Same assay, conditions: antagonistic activity for the human P2X7 receptor; read-out: IC50
row,SMILES,IC50
1,COc1ccc(Nc2nc(=O)c(C)nn2Cc2cc(F)c(F)c(F)c2)c(C)c1 [Compound I-1277],< 10 nM
2,COc1ccc(Nc2nc(=O)cnn2Cc2ccc(F)cc2)c(C)c1 [Compound I-1273],< 10 nM
3,COc1cn(Cc2ccccc2)c(Nc2cccc3c(=O)n(C)ccc23)nc1=O [Compound I-0901],100 to 500 nM
4,COc1cn(Cc2ccc(F)c(F)c2)c(Nc2cc(OC(F)F)c(C)cc2C)nc1=O [Compound I-0878],< 10 nM
5,COc1cn(Cc2ccc(F)c(Cl)c2)c(Nc2cc3nc(C)sc3cc2C)nc1=O [Compound I-0746],10 to 100 nM
6,Cc1cc(OC(F)F)c(C)cc1Nc1nc(=O)c(F)cn1Cc1cc(F)c(F)c(F)c1 [Compound I-1210],< 10 nM
7,Cc1ccc(CO)cc1Nc1nc(=O)c(F)cn1Cc1ccc(F)c(F)c1 [Compound I-1012],< 10 nM
8,Cc1cc2cc(Nc3nc(=O)c(F)cn3Cc3ccc(F)c(F)c3)c(C)cc2[nH]1 [Compound I-1056],10 to 100 nM
9,COc1cn(Cc2ccc(F)c(Cl)c2)c(Nc2ccc3occc3c2C)nc1=O [Compound I-0799],< 10 nM
10,COc1cn(Cc2ccc(F)c(Cl)c2)c(Nc2cc(C)c(OC(F)F)cc2C)cc1=O [Compound I-0948],10 to 100 nM
11,COCc1cn(Cc2cc(F)c(F)c(F)c2)c(Nc2cc(-c3ncco3)ccc2C)nc1=O [Compound I-1129],10 to 100 nM
12,COc1cn(Cc2ccc(Cl)s2)c(Nc2cc(C)c(C)cc2C)nc1=O [Compound I-0808],< 10 nM
13,Cc1c(Nc2nc(=O)ccn2Cc2cc(F)c(F)c(F)c2)ccc2[nH]ccc12 [Compound I-1169],< 10 nM
14,Cc1ccc(CF)cc1Nc1nc(=O)c(F)cn1Cc1cc(F)cc(F)c1 [Compound I-1240],< 10 nM
15,COc1cn(Cc2ccc(F)c(Cl)c2)c(Nc2cc(N3CCCC3)ccc2C)nc1=O [Compound I-0884],10 to 100 nM
16,COc1cn(Cc2cc(F)cc(Cl)c2)c(Nc2cc(OC3CC3)ccc2C)nc1=O [Compound I-0891],10 to 100 nM
17,COc1cn(Cc2ccc(F)c(Cl)c2)c(Nc2c(C)ccc(C)c2F)nc1=O [Compound I-0927],< 10 nM
18,COc1ccc(Nc2nc(=O)c(F)cn2Cc2cc(F)c(F)c(F)c2)c(C)n1 [Compound I-1036],10 to 100 nM
19,COc1cn(Cc2cc(F)c(F)c(F)c2)c(Nc2cc3sc(C(F)F)nc3cc2C)nc1=O [Compound I-0934],10 to 100 nM
20,O=c1nc(Nc2cccc3c2CCN3)n(Cc2cc(F)c(F)c(F)c2)cc1F [Compound I-0995],10 to 100 nM
21,Cn1ccc2c(Nc3nc(=O)c(F)cn3Cc3ccc(F)c(F)c3)cccc21 [Compound I-1020],< 10 nM
22,CCOc1cn(Cc2ccccc2)c(Nc2cc(C)cc(OC)c2C)nc1=O [Compound I-0717],< 10 nM
23,COc1cn(Cc2cc(F)cc(F)c2)c(Nc2cc(CO)c(C)cc2C)nc1=O [Compound I-0600],< 10 nM
24,Cc1cc2c(cc1Nc1nc(=O)c(F)cn1Cc1ccc(F)c(F)c1)CCO2 [Compound I-1072],< 10 nM

row,SMILES,IC50
1,C#Cc1cc(Nc2nc(=O)c(OC)cn2Cc2cc(F)cc(F)c2)c(C)cc1F [Compound I-0915],10 to 100 nM
2,Cc1cc(C(F)F)ccc1Nc1nc(=O)c(F)cn1Cc1cc(F)c(F)c(F)c1 [Compound I-1237],< 10 nM
3,COc1cn(Cc2ccccc2)c(Nc2c(C)ccc(C)c2F)nc1=O [Compound I-0926],10 to 100 nM
4,COc1cc(C)c(Nc2nc(=O)ccn2Cc2cc(F)c(F)c(F)c2)cc1OC [Compound I-1150],10 to 100 nM
5,Cc1cc(OC(F)F)c(C)cc1Nc1nc(=O)c(Cl)cn1Cc1cc(F)cc(F)c1 [Compound I-0839],< 10 nM
6,COc1cn(Cc2cc(F)cc(F)c2)c(Nc2cc(OC(F)(F)F)ccc2C)nc1=O [Compound I-0695],10 to 100 nM
7,COc1cn(Cc2cc(F)cc(F)c2)c(Nc2cc(S(C)(=O)=O)cc(C)c2C)nc1=O [Compound I-0758],10 to 100 nM
8,COc1nc(C)c(Nc2nc(=O)c(F)cn2Cc2cc(F)c(F)c(F)c2)cc1C [Compound I-1000],< 10 nM
9,COc1cn(Cc2cc(F)cc(F)c2)c(Nc2cc(OC(F)F)c(C)cc2C)nc1=O [Compound I-0879],< 10 nM
10,COc1cn(Cc2ccc(C(F)(F)F)c(F)c2)c(Nc2cccc(Cl)c2C)nc1=O [Compound I-0634],100 to 500 nM
11,COc1ccc(Cl)c(Nc2nc(=O)c(OC)cn2Cc2cc(F)cc(F)c2)c1 [Compound I-0639],10 to 100 nM
12,COc1cn(Cc2ccc(F)c(Cl)c2)c(Nc2cc3[nH]ccc3cc2C)nc1=O [Compound I-0619],< 10 nM
13,Cc1cccc(Nc2nc(=O)c(F)cn2Cc2cc(F)c(F)c(F)c2)c1F [Compound I-1185],< 10 nM
14,COCc1cn(Cc2cc(F)c(F)c(F)c2)c(Nc2cc(OC)c(OC)cc2C)nc1=O [Compound I-1144],10 to 100 nM
15,Cc1cc(C)c(Nc2nc(=O)c(F)cn2Cc2ccc(F)c(Cl)c2)cc1CO [Compound I-1089],< 10 nM
16,COc1cc(Nc2nc(=O)c(OC)cn2Cc2ccccc2)c(C)cc1C [Compound I-0585],< 10 nM
17,COCc1cn(Cc2cc(F)c(F)c(F)c2)c(Nc2ccc3[nH]ccc3c2C)nc1=O [Compound I-1163],< 10 nM
18,CCc1cc2c(cc1Nc1nc(=O)c(OC)cn1Cc1cc(F)cc(F)c1)OC(F)(F)O2 [Compound I-0729],100 to 500 nM
19,COc1cc(C)c(Nc2nc(=O)c(C(=O)O)nn2Cc2cc(F)c(F)c(F)c2)cc1OC [Compound I-1251],10 to 100 nM
20,Cc1ccccc1Nc1nc(=O)c(F)cn1Cc1cc(F)c(F)c(F)c1 [Compound I-1082],< 10 nM
21,CCOc1ccc(Nc2nc(=O)c(OC)cn2Cc2cccc(Cl)c2)c(C)c1 [Compound I-0677],10 to 100 nM
22,Cc1ccc(C)c(Nc2nc(=NC#N)c(F)cn2Cc2cc(F)c(F)c(F)c2)c1 [Compound I-1293],< 10 nM
23,CCOc1ccc(Nc2nc(=O)c(OC)cn2Cc2ccc(F)c(Cl)c2)c(C)c1 [Compound I-0679],< 10 nM

# — US10774051B2, “6-membered heterocyclic derivatives and pharmaceutical composition comprising the same” (Shionogi & Co., Ltd., priority 2015, dated 2020)
